Calls of active or inactive are those of the source. The rule behind the calls is not given here.
How the values were obtained:
MCF7 = assay: Cytotoxicity against human MCF7 cells assessed as reduction in cell viability incubated for 24 hrs by MTT assay; assay type: functional, cell-based
HepG2 = assay: Induction of cell cycle arrest in human HepG2 cells harboring CD133+ assessed as increase in S phase arrest at IC50 concentration incubated for 48 hrs by PI staining based flow cytometry analysis; assay type: functional
[1] = Toxicity in Wistar rat assessed as body weight loss at 2000 mg/kg, po and observed for 1 week; assay type: organism-based; details: in vivo, 168 h, time 1 weeks

CC(=O)Nc1ccc(Oc2cccc3c(NC(=O)Nc4cccc(C(F)(F)F)c4)cccc23)cc1
inhibition (MCF7): Dose-dependent effect
Activity (HepG2): Active
Activity [1]: Toxic
